The text below walks through data of ChEMBL document CHEMBL4257551, “Glycyrrhizic acid from licorice down-regulates inflammatory responses via blocking MAPK and PI3K/Akt-dependent NF-κB signalling pathways in TPA-induced skin inflammation” (2018).

Structures are written as SMILES.

Holding throughout (type): functional
Assay [1] relates to Mus musculus. Kind of assay: Antiinflammatory activity against TPA-induced ear edema in BALB/c mouse assessed as weight of ear punches at 5 mM administered topically for 15 mins prior to TPA challenge and measured after 12 hrs (reference value: 12.4 +/- 0.1 mg).
The test system of assay [2] is Mus musculus. Kind of assay: Antiinflammatory activity against TPA-induced ear edema in BALB/c mouse assessed as weight of ear punches at 5 mM administered topically for 15 mins prior to TPA challenge and measured after 24 hrs (reference value: 12.1 +/- 0.2 mg).
For assay [3], the system named is Mus musculus. Kind of assay: Antiinflammatory activity against TPA-induced ear edema in BALB/c mouse assessed as weight of ear punches at 5 mM administered topically for 15 mins prior to TPA challenge and measured after 3 hrs (reference value: 8.3 +/- 0.1 mg).
The subject of assay [4] is Mus musculus. Nature of the assay: Antiinflammatory activity against TPA-induced ear edema in BALB/c mouse assessed as weight of ear punches at 5 mM administered topically for 15 mins prior to TPA challenge and measured after 48 hrs (reference value: 11.4 +/- 0.3 mg).
Assay [5] has as its system Mus musculus. Kind of assay: Antiinflammatory activity against TPA-induced ear edema in BALB/c mouse assessed as weight of ear punches at 5 mM administered topically for 15 mins prior to TPA challenge and measured after 6 hrs (reference value: 12.5 +/- 0.3 mg).

Turning to `C[C@]12C=CC(=O)C=C1CC[C@@H]1[C@@H]2[C@@H](O)C[C@@]2(C)[C@H]1CC[C@]2(O)C(=O)CO` [PREDNISOLONE], the Activity in the assay with Mus musculus [1] was 5.7 mg; in the assay on Mus musculus [2], 5.6 mg; in the assay on Mus musculus [3] it was 5.4 mg; in the assay on Mus musculus [4], 5.6 mg; with Mus musculus [5], 5.6 mg.
